The record followed here is ChEMBL document CHEMBL4680378, “Discovery of a Lead Compound for Specific Inhibition of Type I Collagen Production in Fibrosis” (ACS Med Chem Lett, 2021).

Structures are written as SMILES. Active and inactive are the calls of the source. The calls are words filed in the database; no cut-off is given here.

In data set [1] the target is La-related protein 6 (Homo sapiens) (UniProt Q9BRS8). Kind of data set: Inhibition of LARP6 La module (unknown origin) binding with collagen 5' stem loop mRNA at > 2.5 uM by gel mobility shift assay. The following applies: dose microM >2.5.
The target is the same in data set [2]. Put plainly: Inhibition of LARP6 La module (unknown origin) binding with collagen 5' stem loop mRNA assessed as decrease in La module dimer bound band intensity at 1 to 50 uM by gel mobility shift assay. Particulars: dose 1-50 µM.
Data set [3] concerns Primary lung fibroblast. Kind of data set: Inhibition of type 1 collagen alpha1 polypeptide secretion in human lung fibroblasts at 5 uM incubated for 18 hrs followed by addition of fresh medium and measured after 3 hrs by Western blot analysis. It counts as functional, tissue-based. Background: Immunoblotting shows a protein as a band on a membrane.
Data set [4] addresses La-related protein 6 (Homo sapiens) (UniProt Q9BRS8). Kind of data set: Inhibition of LARP6 La domain (unknown origin) binding with collagen 5' stem loop mRNA assessed as decrease in La domain bound band intensity at 1 to 3 uM by gel mobility shift assay. Particulars: dose 1-3 µM.
A short description of data set [5]: Inhibition of type 1 collagen alpha2 polypeptide secretion in human lung fibroblasts incubated for 18 hrs followed by addition of fresh medium and measured after 3 hrs by Western blot analysis. It is filed as functional, tissue-based. The following applies: Primary lung fibroblast.
For data set [6], the target named is La-related protein 6 (Homo sapiens) (UniProt Q9BRS8). Kind of data set: Inhibition of LARP6 La domain (unknown origin) binding with collagen 5' stem loop mRNA at > 1 uM by gel mobility shift assay. The following applies: dose microM >1.
The subject of data set [7] is Primary lung fibroblast. Put plainly: Inhibition of type 1 collagen alpha2 polypeptide secretion in human lung fibroblasts at 4 uM incubated for 18 hrs followed by addition of fresh medium and measured after 3 hrs by Western blot analysis. It counts as functional, tissue-based.
A short description of data set [8]: Inhibition of type 1 collagen alpha1 polypeptide secretion in human lung fibroblasts incubated for 18 hrs followed by addition of fresh medium and measured after 3 hrs by Western blot analysis. It is filed as functional, tissue-based. The following applies: Primary lung fibroblast.
Data set [9] is described as follows: Cytotoxicity against human lung fibroblasts assessed as effect on cell viability. It counts as tissue-based. The following applies: primary lung fibroblast.
Data set [10] has as its target La-related protein 6 (Homo sapiens) (UniProt Q9BRS8). Kind of data set: Inhibition of LARP6 La module (unknown origin) binding with collagen 5' stem loop mRNA assessed as decrease in La module monomer bound band intensity at 1 to 50 uM by gel mobility shift assay. Particulars: dose 1-50 µM.
For data set [11], the system named is Primary lung fibroblast. Put plainly: Inhibition of type 1 collagen secretion in human lung fibroblasts at 5 ug/ml incubated for 18 hrs followed by addition of fresh medium and measured after 3 hrs by Western blot analysis. It is filed as functional, tissue-based. The following applies: dose 5.0 µg/ml.

La-related protein 6 (Homo sapiens), sequence (Q9BRS8 whole entry, looked up, the tested form may be a part): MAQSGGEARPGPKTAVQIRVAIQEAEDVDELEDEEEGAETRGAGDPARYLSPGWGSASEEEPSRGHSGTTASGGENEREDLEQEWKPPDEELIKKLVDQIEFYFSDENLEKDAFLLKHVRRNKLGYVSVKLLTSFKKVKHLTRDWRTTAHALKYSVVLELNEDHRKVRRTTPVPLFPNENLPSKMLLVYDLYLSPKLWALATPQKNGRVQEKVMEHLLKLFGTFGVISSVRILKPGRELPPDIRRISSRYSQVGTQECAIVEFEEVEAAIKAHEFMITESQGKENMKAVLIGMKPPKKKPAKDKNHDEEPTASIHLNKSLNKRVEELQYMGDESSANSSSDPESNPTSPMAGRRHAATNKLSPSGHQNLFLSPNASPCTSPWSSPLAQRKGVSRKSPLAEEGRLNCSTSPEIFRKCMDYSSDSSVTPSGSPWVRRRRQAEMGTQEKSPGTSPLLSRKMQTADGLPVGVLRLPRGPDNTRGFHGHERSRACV

For the molecule `CCCCCCCCCCCCCC(=O)N[C@H]1C[C@@H](C(N)=O)N(c2cc(N3CCN(C(=O)c4cc(C)cc(C)c4)CC3)ncn2)C1`, the inhibition entry in data set [1], in [2], in [3], in data set [4], in data set [6] and in [7] was “Active” throughout. Besides, the inhibition result in data set [10] was “Active”. Further, the results for the IC50 in data set [5] and in data set [8] were 3.1 µM and 4.4 µM, respectively. In data set [9], the Activity entry is listed as “Non-Toxic”.

Regarding `CCCCCCCCCCCCCC(=O)N[C@H]1C[C@@H](C(N)=O)N(c2cc(N3CCN(C(=O)CCCc4ccccc4)CC3)ncn2)C1`, the inhibition result in data set [11] was “Active”.

Broadly, the IC50 is the concentration at which inhibition is half-maximal. Read a low IC50 as higher potency.
